Reference: patent publication US5128366A, “Pyrrole derivatives” (Shinogi & Co., Ltd., priority 1990, dated 1992)

Molecular target: T1, HMG-CoA reductase (Rattus norvegicus, UniProt P51639)
T1 construct: from tissue; host or cells: liver microsomes of Sprague-Dawley rats fed 2% cholestyramine for 2 weeks
T1 sequence (P51639 1-887): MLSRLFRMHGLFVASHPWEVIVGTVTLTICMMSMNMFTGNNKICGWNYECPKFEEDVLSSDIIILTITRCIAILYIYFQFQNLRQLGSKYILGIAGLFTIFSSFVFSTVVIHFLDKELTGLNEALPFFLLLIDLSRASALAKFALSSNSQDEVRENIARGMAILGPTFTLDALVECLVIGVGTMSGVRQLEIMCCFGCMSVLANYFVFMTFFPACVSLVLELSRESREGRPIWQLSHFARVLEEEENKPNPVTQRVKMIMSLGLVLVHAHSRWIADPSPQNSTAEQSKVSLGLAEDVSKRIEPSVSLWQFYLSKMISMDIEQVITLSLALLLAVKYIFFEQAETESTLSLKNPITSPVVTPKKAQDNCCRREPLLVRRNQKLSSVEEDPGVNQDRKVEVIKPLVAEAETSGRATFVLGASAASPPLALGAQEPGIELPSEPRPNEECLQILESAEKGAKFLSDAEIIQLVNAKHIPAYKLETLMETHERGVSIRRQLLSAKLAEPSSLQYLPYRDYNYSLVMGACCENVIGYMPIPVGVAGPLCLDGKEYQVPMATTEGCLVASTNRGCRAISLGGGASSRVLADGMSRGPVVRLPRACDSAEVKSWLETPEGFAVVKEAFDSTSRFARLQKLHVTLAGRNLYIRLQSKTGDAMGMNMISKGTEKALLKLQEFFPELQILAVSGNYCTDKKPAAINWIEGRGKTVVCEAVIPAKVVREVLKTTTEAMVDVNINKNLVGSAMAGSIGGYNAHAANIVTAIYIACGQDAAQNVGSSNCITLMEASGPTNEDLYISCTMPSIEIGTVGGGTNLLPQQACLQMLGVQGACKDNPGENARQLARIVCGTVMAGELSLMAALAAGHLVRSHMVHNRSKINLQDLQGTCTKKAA
Experiment: HMG-CoA reductase inhibitory effect in rat liver microsome, [3-14C]HMG-CoA, TLC and scintillation counting
Assay type: biochemical
Details: comparative activity, Mevinolin (sodium salt) as reference drug = 100, sodium salt of the test compound, 37° C., 30 minutes
Description: (1) Preparation of Rat Liver Microsome
Sprague-Dawley rats, which were in free access to ordinary diets containing 2% cholestyramine and water for 2 weeks, were used for the preparation of rat liver microsome, which were then purified according to the manner by Kuroda et al., Biochem. Biophys. Act, 486, 70 (1977). The microsomal fraction obtained by centrifugation at 105000×g was washed once with a buffered solution containing 15 mM nicotinamide and 2 mM magnesium chloride (in a 100 mM potassium phosphate buffer, pH 7.4). It was homogenized with a buffer containing nicotinamide and magnesium chloride at the same weight as the liver employed. The thus obtained homogenate was cooled down to and kept at -80° C.
(2) Measurement of the HMG-CoA Reductase Inhibitory Activities
The rat liver microsome (100 μl), which was preserved at -80° C., was […] at 0° C. and diluted with 0.7 ml of a cold potassium phosphate buffer (100 mM, pH 7.4 ). This was mixed with 0.8 ml of 50 mM EDTA (buffered with the aforementioned potassium phosphate buffer) and 0.4 ml of 100 mM dithiothreitol solution (buffered with the aforementioned potassium phosphate buffer), and the mixture was kept at 0° C. The microsome solution, 1.675 ml, was mixed with 670 μl of 25 mM NADPH (buffered with the aforementioned potassium phosphate buffer), and the solution was added to the solution of 0.5 mM [3^-14 C]HMG-CoA (3 mCi/mmol). Potassium phosphate buffer of sodium salt of the test compound 5 μl is added to the mixture of microsome and HMG-CoA 45 μl, and the resulting mixture was incubated at 37° C. for 30 minutes and cooled. After termination of the reaction by addition of 10 μl of 2N-HCl, the mixture was incubated again at 37° C. for 15 minutes and then 30 μl of this mixture was applied to thin-layer chromatography with silica gel of 0.5 mm in thickness (Merck AG, Art 5744). The chromatograms were developed in toluene/acetone (1/1) and the sections, whose Rf value was between 0.45 to 0.6, were scraped. The obtained products were put into a vial containing 8 ml of scintillator to measure specific radio-activity with a scintillation counter.

Structure (SMILES)	HMG-CoA reductase inhibitory activities
CC(C)c1c(/C=C/[C@@H](O)C[C@@H](O)CC(=O)O)c(-c2ccc(F)cc2)c(-c2ccc(F)cc2)n1S(C)(=O)=O (relative stereo) [Ia-17, 7-.upsilon.4,5-Di-(4-fluorophenyl)-2-isopropyl-1-(methylsulfonyl)-pyrrol-3-yl]-(3R*,5S*)-dihydroxy-(E)-6-heptenoic acid]	293
Cc1c(-c2ccc(F)cc2)c(/C=C/[C@@H](O)C[C@@H](O)CC(=O)O)c(C(C)C)n1S(C)(=O)=O [Id-2, (+) Sodium 7-[4-(4-fluorophenyl)-2-isopropyl-5-methyl-(1-methylsulfonyl)pyrrol-3-yl]-(3R,5S)-dihydroxy-(E)-6-heptenate]	418
CC(C)c1c(/C=C/[C@@H](O)C[C@@H](O)CC(=O)O)c(-c2ccc(F)cc2)cn1S(C)(=O)=O (relative stereo) [Ia-10]	263
CC[C@H](C)C(=O)O[C@H]1C[C@@H](C)C=C2C=C[C@H](C)[C@H](CC[C@@H](O)C[C@@H](O)CC(=O)O)[C@H]21 [Mevinolin Na, Mevinolin, reference compound]	100
Cc1c(-c2ccc(F)cc2)c(/C=C/[C@@H](O)C[C@@H](O)CC(=O)O)c(C(C)C)n1S(=O)(=O)Cc1ccccc1 (relative stereo) [Ia-19, 7-[4-(4-Fluorophenyl)-2-isopropyl-5-methyl-(1-benzylsulfonyl)-pyrrol-3-yl]-(3R*,5S*)-dihydroxy-(E)-6-heptenate]	105
CCS(=O)(=O)n1c(C)c(-c2ccc(F)cc2)c(/C=C/[C@@H](O)C[C@@H](O)CC(=O)O)c1C(C)C (relative stereo) [Ia-18, 7-[4-(4-Fluorophenyl)-2-isopropyl-5-methyl-(1-ethylsulfonyl)pyrrol-3-yl]-(3R*,5S*)-dihydroxy-(E)-6-heptenate]	228
